# Results: paper PMC9571594, “Development of Semisynthetic Apoptosis-Inducing Agents Based on Natural Phenolic Acids Scaffold: Design, Synthesis and In-Vitro Biological Evaluation” (Molecules, 2022)
# Where two headings read alike, the source gives them in different places.
# What was measured:
# A549 cells = experiment: MTT cell viability assay, A549; type: cell-based, human; details: Homo sapiens
# Procedure: (§1) MCF-7 cells (Human breast adenocarcinoma), HepG2 (human hepatocellular carcinoma), A549 (human lung adenocarcinoma), Caco-2 (colon carcinoma), PANC-1 (human pancreatic cancer), and Vero cells (derived from normal kidney cells) were supplied by (Holding Company for Biological Products and Vaccines VACSERA; Giza, Egypt). The cells were cultured in PRMI 1640 medium (Lonza, Switzerland) supplemented with 10% fetal bovine serum (Gibco), 1% penicillin and 1% streptomycin (Sigma Aldrich, Saint Louis, MO, USA) at 37 °C under an atmosphere of 5% CO2 and 95% air.
# (§2) The effect of parent compounds and their derivatives were assessed by (3-(4,5-dimethylthiazol-2-yl)-2,5diphenyl-tetrazolium bromide) MTT assay. […] After a merged sheet of cells developed, the growth media was decanted from the 96-well microtiter and refilled with different concentrations of compounds (µg/mL), and the plate was incubated at 37 °C for 48 h to minimize exposure to the dissolving agent (Supporting Information).
# (§3) MTT solution (BIO BASIC CANADA INC) was prepared [5 mg/mL in phosphate buffered saline (PBS)], added to each well and incubated for 4 h, then after removing the media, 200 μL of DMSO was added to each well to solubilize the formazan crystals and the optical density of the formazan product was measured at 560 nm using microplate reader (mindray, MR-96A). The results were calculated as the mean of the three independent experiments. […]
# (§4) Determination of sample cytotoxicity on cells (MTT protocol) […]
# (§5) well) and incubated at 37°C for 24 hours to develop a complete monolayer sheet.
# (§6) 2- Growth medium was decanted from 96 well micro titer plates after confluent sheet of cells were formed, cell monolayer was washed twice with wash media.
# (§7) 3- two-fold dilutions of tested sample was made in RPMI medium with 2% serum […]
# (§8) 4- 0.1 ml of each dilution was tested in different wells leaving 3 wells as control, receiving only maintenance medium.
# (§9) 5- Plate was incubated at 37°C and examined. Cells were checked for any physical signs of toxicity, e.g. partial or complete loss of the monolayer, rounding, shrinkage, […]
# (§10) 6- MTT solution was prepared (5mg/ml in PBS) (BIO BASIC CANADA INC).
# (§11) 8- 20ul MTT solution were added to each well. Place on a shaking table, 150rpm for 5 minutes, to thoroughly mix the MTT into the media.
# (§12) 10) Dump off the media. (dry plate on paper towels to remove residue if necessary. […] 9 ش - ايلعلا هبضهلا - مطقملا / ىسيئرلا لمعملا […]
# Caco-2 cells = experiment: Cell-cycle analysis by flow cytometry; type: cell-based; details: Caco-2 cells; for %G0–G1 / %G2/M / %S: cell-cycle distribution after treatment; for %Pre-G1: Pre-G1 = apoptotic population
# Procedure: The potential candidates with anti-tumor effect on the Caco-2 cell line along with a high SI were chosen for cell-cycle analysis. The cell-cycle distribution and cell death were analyzed using Annexin V-FITC/PI staining and flow cytometry (Table 4, Figure 4).
# In order to determine the percentage of viable, apoptotic and necrotic cells after treatment with our compounds, double-staining with fluorescein isothiocyanate (FITC) and PI was performed. Annexin V-FITC Apoptosis Detection Kit (BioVision, CA, USA) was used. Briefly, cultured Caco-2 were treated with the tested compounds or DMSO for 24h. Cells were then collected by centrifugation at 2000 rpm for 5 min, and the pellet was washed with PBS then centrifuged again at 2000 rpm for 5 min then resuspended in 500μL of the kit’s binding buffer before adding the Annexin V-FITC and PI. The cells were then incubated at room temperature in the dark for 5 min. […]
# Assay : Cell Cycle Analysis
# Kit used : ab139418_Propidium Iodide Flow Cytometry Kit/BD
# Assay samples :Cell culture
# Cpd. No. Cpd. No. Cpd. No. Cpd. No.
# PANC-1 cells = experiment: MTT cell viability assay, PANC-1; type: cell-based, human
# Procedure: as §1, §2, §3, §4, §5, §6, §7, §8, §9, §10, §11, §12
# HepG2 cells = experiment: MTT cell viability assay, HepG2; type: cell-based, human
# Procedure: as §1, §2, §3, §4, §5, §6, §7, §8, §9, §10, §11, §12
structure (smiles),measurement,setting,value
"O=C(O)/C=C/c1ccc(O)c(O)c1 [Compound 1, Caffeic acid]",viability at 250 µg/mL,"A549 cells; A549, 250 ug/ml",47.1%
same,viability at 500 µg/mL,"A549 cells; A549, 500 ug/ml",21.4%
same,IC50,"A549 cells; A549, MTT report T-4-019-5, Conc. ug/ml, read-out: IC50",317 µg/mL
same,%G0–G1,Caco-2 cells,46.29 ± 3.1%
same,%G2/M,Caco-2 cells,20.49 ± 1.92%
same,%S,Caco-2 cells,33.22 ± 1.99%
same,%G0–G1,Caco-2 cells; listed as s1,46.29%
same,%G2/M,Caco-2 cells; listed as s1,20.49%
same,%S,Caco-2 cells; listed as s1,33.22%
same,%Pre-G1,Caco-2 cells,11.31 ± 0.81%
same,%Pre-G1,Caco-2 cells; listed as caffeic acid,11.31%
same,IC50,"PANC-1 cells; Homo sapiens, PANC-1, MTT, 48 h, average of triplicates, read-out: IC50 (μM) ± SD PANC-1",1290 µM
same,viability at 15.625 µg/mL,"PANC-1 cells; Homo sapiens, PANC-1, Panc1, 15.625 ug/ml",100%
same,viability at 31.25 µg/mL,"PANC-1 cells; Homo sapiens, PANC-1, Panc1, 31.25 ug/ml",101%
same,viability at 62.5 µg/mL,"PANC-1 cells; Homo sapiens, PANC-1, Panc1, 62.5 ug/ml",99.8%
same,viability at 125 µg/mL,"PANC-1 cells; Homo sapiens, PANC-1, Panc1, 125 ug/ml",91.8%
same,viability at 250 µg/mL,"PANC-1 cells; Homo sapiens, PANC-1, Panc1, 250 ug/ml",48.3%
same,viability at 500 µg/mL,"PANC-1 cells; Homo sapiens, PANC-1, Panc1, 500 ug/ml",29.7%
same,IC50,"PANC-1 cells; Homo sapiens, PANC-1, Panc1, MTT report T-4-019-5, Conc. ug/ml, read-out: IC50",251 µg/mL
same,Toxicity %,"PANC-1 cells; Panc1, 15.625 ug/ml",0%
same,Toxicity %,"PANC-1 cells; Panc1, 31.25 ug/ml",0%
same,Toxicity %,"PANC-1 cells; Panc1, 62.5 ug/ml",0.1812%
same,Toxicity %,"PANC-1 cells; Panc1, 125 ug/ml",8.243%
same,Toxicity %,"PANC-1 cells; Panc1, 250 ug/ml",51.72%
same,Toxicity %,"PANC-1 cells; Panc1, 500 ug/ml",70.29%
same,Toxicity %,"HepG2 cells; HepG2, 15.625 ug/ml",0.202%
same,Toxicity %,"HepG2 cells; HepG2, 31.25 ug/ml",0.101%
same,Toxicity %,"HepG2 cells; HepG2, 62.5 ug/ml",0.5051%
same,Toxicity %,"HepG2 cells; HepG2, 125 ug/ml",13.64%
same,Toxicity %,"HepG2 cells; HepG2, 250 ug/ml",72.12%
same,Toxicity %,"HepG2 cells; HepG2, 500 ug/ml",83.94%
same,IC50,"HepG2 cells; Homo sapiens, HepG2, MTT, 48 h, average of triplicates, read-out: IC50 (μM) ± SD HepG2",1030 µM
same,viability at 15.625 µg/mL,"HepG2 cells; Homo sapiens, HepG2, 15.625 ug/ml",99.8%
same,viability at 31.25 µg/mL,"HepG2 cells; Homo sapiens, HepG2, 31.25 ug/ml",99.9%
same,viability at 62.5 µg/mL,"HepG2 cells; Homo sapiens, HepG2, 62.5 ug/ml",99.5%
same,viability at 125 µg/mL,"HepG2 cells; Homo sapiens, HepG2, 125 ug/ml",86.4%
same,viability at 250 µg/mL,"HepG2 cells; Homo sapiens, HepG2, 250 ug/ml",27.9%
same,viability at 500 µg/mL,"HepG2 cells; Homo sapiens, HepG2, 500 ug/ml",16.1%
same,IC50,"HepG2 cells; Homo sapiens, HepG2, MTT report T-4-019-5, Conc. ug/ml, read-out: IC50",201 µg/mL
